Test results published in PMC13181761, “New Analogs of the Compstatin Family of Clinical Complement Inhibitors with Low Picomolar Target Affinity” (Journal of Medicinal Chemistry, 2026).
Like-named read-outs stand apart in the source and are kept apart here. Where a SMILES comes first, the peptide text is derived from it. Bridges are numbered along the chain shown (N, C = ends). [ ]: non-standard residue; d: D form. Bta = N[C@@H](Cc1csc2ccccc12)C(=O)O; Asu = N[C@@H](CCCCCC(=O)O)C(=O)O; Orn = NCCC[C@H](N)C(=O)O

Target: T1, human C3b (Homo sapiens, UniProt P01024)
T1 construct: purchased Complement Technology, Tyler, TX, USA
Assay: SPR kinetic binding to immobilized human C3b
Settings: for fold affinity drop / weaker affinity compared with Cp01: K D ratio vs Cp01
Experimental: Experiments were conducted at 25 °C in HBST buffer (10 mM HEPES, 150 mM NaCl, and 0.05% Tween-20, pH 7.4; XanTec bioanalytics). Human C3b (Complement Technology, Tyler, TX, USA) was immobilized via amine-reactive coupling. […] Individual peptide samples were injected for 120 s, followed by a 180 s dissociation phase. […] Signals from the reference cell and buffer blank injections were subtracted within each dilution series to correct for buffer effects and injection artifacts. Data were fitted to a Langmuir 1:1 binding model to calculate association (k a) and dissociation (k d) rate constants, and the equilibration constant K D is calculated based on the equation: K D = k d/k a. In the case of Cp40 derivatives and Cp60, a single-cycle approach was used for kinetic analysis by injecting 5 increasing concentrations of each compound (0.5-40 nM) consecutively without a regeneration period in between injections. Individual injections within a cycle were 120 s long with a 5 min dissociation phase between injections. […] Analog Cp40 was included in each experimental series as a reference and internal control. Signals from the reference cell and buffer blank injections were subtracted to correct for buffer effects and injection artifacts. Kinetic data were processed in BiaEvaluation (Cytiva) using single-cycle evaluation by global fitting each data set to a Langmuir 1:1 binding model. The reported kinetic parameters (Tables and ) indicate the mean values and standard deviations of three independent experiments. SPR sensorgrams are provided in the Supporting Information.

[1] = SPR screening at 2 and 1 μM, series up to 16 μM, read-out: affinity hC3b (class symbol N.B./W.B.)
[2] = SPR, 1:1 Langmuir fit, average of 3 independent experiments, SD in brackets
[3] = SPR, 1:1 Langmuir fit, average of 3 independent experiments, SD in brackets, read-out: K D, affinity hC3b

T1 sequence (P01024 23-667 limits assumed): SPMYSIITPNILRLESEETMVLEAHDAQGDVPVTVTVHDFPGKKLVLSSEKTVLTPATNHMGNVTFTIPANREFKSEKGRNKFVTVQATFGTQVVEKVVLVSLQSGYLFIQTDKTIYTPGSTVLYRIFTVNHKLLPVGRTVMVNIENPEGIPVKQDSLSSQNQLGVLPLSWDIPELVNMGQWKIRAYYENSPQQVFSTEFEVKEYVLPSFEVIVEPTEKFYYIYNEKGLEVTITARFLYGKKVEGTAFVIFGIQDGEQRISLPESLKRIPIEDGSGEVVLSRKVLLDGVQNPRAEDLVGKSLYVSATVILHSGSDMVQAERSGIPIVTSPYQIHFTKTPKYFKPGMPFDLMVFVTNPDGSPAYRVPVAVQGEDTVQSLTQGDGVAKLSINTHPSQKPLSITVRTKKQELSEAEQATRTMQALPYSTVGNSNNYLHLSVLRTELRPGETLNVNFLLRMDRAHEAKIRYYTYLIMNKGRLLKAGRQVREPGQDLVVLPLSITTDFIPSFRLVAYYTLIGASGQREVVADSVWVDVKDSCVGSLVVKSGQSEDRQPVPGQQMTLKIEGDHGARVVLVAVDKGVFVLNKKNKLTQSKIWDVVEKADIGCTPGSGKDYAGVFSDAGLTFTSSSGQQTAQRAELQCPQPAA
T1 sequence (P01024 749-1663 partner limits assumed): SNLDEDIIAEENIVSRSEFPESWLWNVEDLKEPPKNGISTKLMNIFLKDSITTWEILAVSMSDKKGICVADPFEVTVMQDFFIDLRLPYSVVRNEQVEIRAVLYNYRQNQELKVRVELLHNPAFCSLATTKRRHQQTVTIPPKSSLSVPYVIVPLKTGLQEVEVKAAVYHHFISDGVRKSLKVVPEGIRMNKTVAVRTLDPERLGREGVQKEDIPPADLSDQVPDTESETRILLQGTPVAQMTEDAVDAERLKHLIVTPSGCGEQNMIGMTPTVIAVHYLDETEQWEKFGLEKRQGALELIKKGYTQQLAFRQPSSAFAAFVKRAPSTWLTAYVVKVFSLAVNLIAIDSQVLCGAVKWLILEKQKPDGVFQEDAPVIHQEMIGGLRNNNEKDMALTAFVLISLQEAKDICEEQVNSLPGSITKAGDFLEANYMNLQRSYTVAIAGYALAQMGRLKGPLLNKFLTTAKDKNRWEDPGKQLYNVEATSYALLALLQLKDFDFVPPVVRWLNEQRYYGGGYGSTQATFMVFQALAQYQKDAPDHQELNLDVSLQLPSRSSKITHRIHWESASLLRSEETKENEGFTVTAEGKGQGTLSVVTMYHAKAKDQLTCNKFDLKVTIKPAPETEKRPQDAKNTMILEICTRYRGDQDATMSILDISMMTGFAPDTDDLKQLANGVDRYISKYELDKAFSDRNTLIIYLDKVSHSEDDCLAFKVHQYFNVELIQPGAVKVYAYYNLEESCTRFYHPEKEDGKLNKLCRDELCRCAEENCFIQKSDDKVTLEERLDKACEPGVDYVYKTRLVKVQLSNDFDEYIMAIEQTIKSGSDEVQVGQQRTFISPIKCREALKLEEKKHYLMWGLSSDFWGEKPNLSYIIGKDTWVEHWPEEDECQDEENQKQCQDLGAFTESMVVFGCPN

Kd [1]	fold affinity drop / weaker affinity compared with Cp01	k a, affinity hC3b [2]	k d, affinity hC3b [2]	Kd [3]	binding to C3b (result in words) (SPR)	binding to C3b (result in words) (SPR, listed as W7Bta)	SMILES
> 2000 nM							CC[C@H](C)[C@H](NC(C)=O)C(=O)N[C@H]1CSSC[C@@H](C(=O)N[C@H](C(N)=O)[C@@H](C)O)NC(=O)[C@H](CCCNC(=N)N)NC(=O)[C@H](Cc2c[nH]cn2)NC(=O)[C@H](C)NC(=O)CNC(=O)[C@H](Cc2c[nH]c3ccccc23)NC(=O)[C@H](CC(=O)O)NC(=O)[C@H](CCC(N)=O)NC(=O)[C@H](Cc2c[nH]c3ccccc23)NC(=O)[C@H](Cc2ccc(O)cc2)NC1=O [Cp01 Val3Tyr] (Ac-ICYWQDWGAHRCT-NH2; disulfide 2-12)
	~2 fold	3.0(0.8) 10^5 M^–1 s^–1	15(2) 10^–2 s^–1	502 nM			CC[C@H](C)[C@H](NC(C)=O)C(=O)N[C@H]1CSSC[C@@H](C(=O)N[C@H](C(N)=O)[C@@H](C)O)NC(=O)[C@H](CCCCN)NC(=O)[C@H](Cc2c[nH]cn2)NC(=O)[C@H](C)NC(=O)CNC(=O)[C@H](Cc2c[nH]c3ccccc23)NC(=O)[C@H](CC(=O)O)NC(=O)[C@H](CCC(N)=O)NC(=O)[C@H](Cc2c[nH]c3ccccc23)NC(=O)[C@H](C(C)C)NC1=O [Cp01-Arg11Lys] (Ac-ICVWQDWGAHKCT-NH2; disulfide 2-12)
	~2 fold	3.3(1.2) 10^5 M^–1 s^–1	16(3) 10^–2 s^–1	529 nM			CC[C@H](C)[C@H](NC(C)=O)C(=O)N[C@H]1CSSC[C@@H](C(=O)N[C@H](C(N)=O)[C@@H](C)O)NC(=O)[C@H](CO)NC(=O)[C@H](Cc2c[nH]cn2)NC(=O)[C@H](C)NC(=O)CNC(=O)[C@H](Cc2c[nH]c3ccccc23)NC(=O)[C@H](CC(=O)O)NC(=O)[C@H](CCC(N)=O)NC(=O)[C@H](Cc2c[nH]c3ccccc23)NC(=O)[C@H](C(C)C)NC1=O [Cp01-Arg11Ser] (Ac-ICVWQDWGAHSCT-NH2; disulfide 2-12)
		5.4(1.5) 10^5 M^–1 s^–1	11(1) 10^–2 s^–1	219 nM			CC[C@H](C)[C@H](NC(C)=O)C(=O)N[C@H]1CSSC[C@@H](C(=O)N[C@H](C(N)=O)[C@@H](C)O)NC(=O)[C@H](CCCNC(=N)N)NC(=O)[C@H](Cc2c[nH]cn2)NC(=O)[C@H](C)NC(=O)CNC(=O)[C@H](Cc2c[nH]c3ccccc23)NC(=O)[C@H](CC(N)=O)NC(=O)[C@H](CCC(N)=O)NC(=O)[C@H](Cc2c[nH]c3ccccc23)NC(=O)[C@H](C(C)C)NC1=O [Cp01-Asp6Asn] (Ac-ICVWQNWGAHRCT-NH2; disulfide 2-12)
	10 fold	1.2(0.5) 10^5 M^–1 s^–1	23(4) 10^–2 s^–1				CC[C@H](C)[C@H](NC(C)=O)C(=O)N[C@H]1CSSC[C@@H](C(=O)N[C@H](C(N)=O)[C@@H](C)O)NC(=O)[C@H](CCCNC(=N)N)NC(=O)[C@H](Cc2c[nH]cn2)NC(=O)[C@H](C)NC(=O)CNC(=O)[C@H](Cc2c[nH]c3ccccc23)NC(=O)[C@H](CCCCCC(=O)O)NC(=O)[C@H](CCC(N)=O)NC(=O)[C@H](Cc2c[nH]c3ccccc23)NC(=O)[C@H](C(C)C)NC1=O [Cp01-Asp6Asu] (Ac-ICVWQ[Asu]WGAHRCT-NH2; disulfide 2-12)
	2 fold	3.8(1.6) 10^5 M^–1 s^–1	18(2) 10^–2 s^–1	528 nM			CC[C@H](C)[C@H](NC(C)=O)C(=O)N[C@H]1CSSC[C@@H](C(=O)N[C@H](C(N)=O)[C@@H](C)O)NC(=O)[C@H](CCCNC(=N)N)NC(=O)[C@H](Cc2c[nH]cn2)NC(=O)[C@H](C)NC(=O)CNC(=O)[C@H](Cc2c[nH]c3ccccc23)NC(=O)[C@H](CCC(=O)O)NC(=O)[C@H](CCC(N)=O)NC(=O)[C@H](Cc2c[nH]c3ccccc23)NC(=O)[C@H](C(C)C)NC1=O [Cp01-Asp6Glu] (Ac-ICVWQEWGAHRCT-NH2; disulfide 2-12)
		3.1(0.9) 10^5 M^–1 s^–1	18(3) 10^–2 s^–1	609 nM			CC[C@H](C)[C@H](NC(C)=O)C(=O)N[C@H]1CSSC[C@@H](C(=O)N[C@H](C(N)=O)[C@@H](C)O)NC(=O)[C@H](CCCNC(=N)N)NC(=O)[C@H](Cc2c[nH]cn2)NC(=O)[C@H](C)NC(=O)CNC(=O)[C@H](Cc2c[nH]c3ccccc23)NC(=O)[C@H](CO)NC(=O)[C@H](CCC(N)=O)NC(=O)[C@H](Cc2c[nH]c3ccccc23)NC(=O)[C@H](C(C)C)NC1=O [Cp01-Asp6Ser] (Ac-ICVWQSWGAHRCT-NH2; disulfide 2-12)
> 2000 nM					no detectable target binding		CC[C@H](C)[C@H](NC(C)=O)C(=O)N[C@H]1CSSC[C@@H](C(=O)N[C@H](C(N)=O)[C@@H](C)O)NC(=O)[C@H](CCCNC(=N)N)NC(=O)[C@H](Cc2c[nH]cn2)NC(=O)[C@H](C)NC(=O)CNC(=O)[C@H](Cc2c[nH]c3ccccc23)NC(=O)[C@H](CC(=O)O)NC(=O)[C@H](CCCCN)NC(=O)[C@H](Cc2c[nH]c3ccccc23)NC(=O)[C@H](C(C)C)NC1=O [Cp01-Gln5Lys] (Ac-ICVWKDWGAHRCT-NH2; disulfide 2-12)
> 2000 nM					no detectable target binding		CC[C@H](C)[C@H](NC(C)=O)C(=O)N[C@H]1CSSC[C@@H](C(=O)N[C@H](C(N)=O)[C@@H](C)O)NC(=O)[C@H](CCCNC(=N)N)NC(=O)[C@H](Cc2c[nH]cn2)NC(=O)[C@H](C)NC(=O)CNC(=O)[C@H](Cc2c[nH]c3ccccc23)NC(=O)[C@H](CC(=O)O)NC(=O)[C@H](CCCN)NC(=O)[C@H](Cc2c[nH]c3ccccc23)NC(=O)[C@H](C(C)C)NC1=O [Cp01-Gln5Orn] (Ac-ICVW[Orn]DWGAHRCT-NH2; disulfide 2-12)
> 2000 nM					diminished target binding		CC[C@H](C)[C@H](NC(C)=O)C(=O)N[C@H]1CSSC[C@@H](C(=O)N[C@H](C(N)=O)[C@@H](C)O)NC(=O)[C@H](CCCNC(=N)N)NC(=O)[C@H](Cc2c[nH]cn2)NC(=O)[C@H](C)NC(=O)[C@H](C)NC(=O)[C@H](Cc2c[nH]c3ccccc23)NC(=O)[C@H](CC(=O)O)NC(=O)[C@H](CCC(N)=O)NC(=O)[C@H](Cc2c[nH]c3ccccc23)NC(=O)[C@H](C(C)C)NC1=O [Cp01-Gly8Ala] (Ac-ICVWQDWAAHRCT-NH2; disulfide 2-12)
> 16000 nM					diminished target binding		CC[C@H](C)[C@H](NC(C)=O)C(=O)N[C@H]1CSSC[C@@H](C(=O)N[C@H](C(N)=O)[C@@H](C)O)NC(=O)[C@H](CCCNC(=N)N)NC(=O)[C@H](Cc2c[nH]cn2)NC(=O)[C@H](C)NC(=O)[C@@H](C)NC(=O)[C@H](Cc2c[nH]c3ccccc23)NC(=O)[C@H](CC(=O)O)NC(=O)[C@H](CCC(N)=O)NC(=O)[C@H](Cc2c[nH]c3ccccc23)NC(=O)[C@H](C(C)C)NC1=O [Cp01-Gly8dAla] (Ac-ICVWQDW[dA]AHRCT-NH2; disulfide 2-12)
> 16000 nM						strongly impaired affinity	CC[C@H](C)[C@H](NC(C)=O)C(=O)N[C@H]1CSSC[C@@H](C(=O)N[C@H](C(N)=O)[C@@H](C)O)NC(=O)[C@H](CCCNC(=N)N)NC(=O)[C@H](Cc2c[nH]cn2)NC(=O)[C@H](C)NC(=O)CNC(=O)[C@H](Cc2csc3ccccc23)NC(=O)[C@H](CC(=O)O)NC(=O)[C@H](CCC(N)=O)NC(=O)[C@H](Cc2c[nH]c3ccccc23)NC(=O)[C@H](C(C)C)NC1=O [Cp01-Trp7Bta] (Ac-ICVWQD[Bta]GAHRCT-NH2; disulfide 2-12)
> 2000 nM							CC[C@H](C)[C@H](NC(C)=O)C(=O)N[C@H]1CSSC[C@@H](C(=O)N[C@H](C(N)=O)[C@@H](C)O)NC(=O)[C@H](CCCNC(=N)N)NC(=O)[C@H](Cc2c[nH]cn2)NC(=O)[C@H](C)NC(=O)CNC(=O)[C@H](Cc2c[nH]c3ccccc23)NC(=O)[C@H](CC(=O)O)NC(=O)[C@H](CCC(N)=O)NC(=O)[C@H](Cc2c[nH]c3ccccc23)NC(=O)C(C)(C)NC1=O [Cp01-Val3Aib]
> 2000 nM							CC[C@H](C)[C@H](NC(C)=O)C(=O)N[C@H]1CSSC[C@@H](C(=O)N[C@H](C(N)=O)[C@@H](C)O)NC(=O)[C@H](CCCNC(=N)N)NC(=O)[C@H](Cc2c[nH]cn2)NC(=O)[C@H](C)NC(=O)CNC(=O)[C@H](Cc2c[nH]c3ccccc23)NC(=O)[C@H](CC(=O)O)NC(=O)[C@H](CCC(N)=O)NC(=O)[C@H](Cc2c[nH]c3ccccc23)NC(=O)[C@H](C)NC1=O [Cp01-Val3Ala]
		2.0(0.5) 10^5 M^–1 s^–1	11(1) 10^–2 s^–1	552 nM			CC[C@H](C)[C@H](NC(C)=O)C(=O)N[C@H]1CSSC[C@@H](C(=O)N[C@H](C(N)=O)[C@@H](C)O)NC(=O)[C@H](CCCNC(=N)N)NC(=O)[C@H](Cc2c[nH]cn2)NC(=O)[C@H](C)NC(=O)CNC(=O)[C@H](Cc2c[nH]c3ccccc23)NC(=O)[C@H](CC(=O)O)NC(=O)[C@H](CCC(N)=O)NC(=O)[C@H](Cc2c[nH]c3ccccc23)NC(=O)[C@H](CC(C)C)NC1=O [Cp01-Val3Leu] (Ac-ICLWQDWGAHRCT-NH2; disulfide 2-12)
